In patent US9012397B2 (priority 2011, dated 2015):
Like-named read-outs stand apart in the source and are kept apart here.

Key:
Type in all cases: in vivo, human
[1] = test system: itching; details: person
Description: (§1) The method of the invention has been carried out with respect to a number of skin disorders. The patients were treated with one of two peptides, each at a concentration of 50 μg/gr cream (unless otherwise indicated):
(§2) The cream was manufactured by Amiga LTD, Israel, and contains the following components:
1. A person suffered from a strong itching sensation on the skin all over the body for no apparent reason.
2. A person suffered from a red rash and itching sensation on their breast. ZEP4 (500 μg/gr cream) was applied twice in a period of 2 hours. • Results: relief from itching within 10 minutes.
3. A person suffered from a strong itching sensation in the lower limbs which sometimes spread to the abdomen and back. […] I. Skin Infection

[2] = test system: mosquito bites; details: two males and four females, 30-57 years old; (500 μg/gr cream) as needed
Description: as §1, §2
8. males and four females suffered from mosquito bites. […]
9. 3 subjects suffering from mosquito bites were treated with ZEP3.

[3] = test system: skin infection; details: person two, wrist infection, allergic reaction to watch band; 50 μg/gr cream several times a day
Description: as §1, §2
1. person two suffered from an infection on the wrist of the left hand, apparently an allergic reaction to a watch band. Large spots appeared around the wrist accompanied by redness.
2. person three suffered from an infection on the wrist of the left hand, apparently an allergic reaction to a watch band. Large spots appeared around the wrist accompanied by redness and itching.
3. 2 cases of infected skin wounds.

[4] = test system: psoriasis; details: person
Description: as §1, §2
1. A person suffered from intermittent psoriasis on their head over many years. […] The patient believes that the frequency of the outbreaks has been reduced.
2. A person suffered from psoriasis on the hands. […] The patient believes that a 20% improvement has occurred over 2 weeks.
3. A person suffered from psoriasis in the anus.
4. A person suffered from extensive psoriasis at various locations. ZEP3 (500 μg/gr cream) was applied to the sores as needed. • Results: the itching ceased within 12 hours.
5. A person suffered from chronic psoriasis on the elbow.
6. A person suffered from severe psoriasis at various locations. They regularly went for treatments to the Dead Sea in Israel.

[5] = test system: bee stings
Description: as §1, §2
3. A person was stung by a bee.
4. person four was stung by bees on both hands.
5. person three was stung by bees on both hands.

[6] = test system: rash
Description: as §1, §2
1. A rash appeared on the wrist of person two, apparently as an allergic response to a watch band. Large red spots appeared around the wrist.
2. A rash appeared in the underarm area of a person, apparently due to sweat and rubbing of the bra strap. […] F. Psoriasis

[7] = test system: Herpes zoster; details: person, lesions with skin edema on mid back; 50 μg/gr cream, applied 4-5 times
Description: as §1, §2
1. A person was diagnosed with Herpes zoster (shingles), which appeared as a painful, circumferential rash in the abdominal area. The patient had been on antibiotics, with no improvement.
2. A person was diagnosed with Herpes zoster, which appeared as painful lesions with skin edema on the mid back area, appearing several times a year. […] Decrease in the skin rash and the degree of the sore and swelling and a shortening of the time of recovery (healing).

[8] = test system: radiation burns
Description: as §1, §2
4. A person with breast cancer received radiation treatment. The person suffered from radiation burns in a large skin area with blisters and open wounds. ZEP4 was applied directly to the wounds over a period of 12 days, 1-2 times per day. • Results: an immediate (˜1 minute) ease in the itching and burning sensation.
7. person two with breast cancer after mastectomy received radiation treatment. The person suffered from severe radiation burns.

[9] = test system: flea bites
Description: as §1, §2
1. person two was bitten by fleas on various occasions, resulting in an itching sensation. […] The ointment was reapplied after 6 hours.
2. person one who is very sensitive to flea bites was bitten by fleas, resulting in an itching sensation. […] The ointment should be reapplied after 12 hours.

[10] = test system: Herpes simplex
Description: as §1, §2
5. A person suffered for many years from Herpes simplex on the neck, with no relief from commercial remedies. ZEP3 was applied topically once a day to the lesions. • Results: relief in itching and skin rash within 10-20 min.
6. person two was diagnosed with Herpes simplex.
7. person one was diagnosed with Herpes simplex.
8. person four suffered from Herpes simplex from childhood.
9. A person suffered from Herpes simplex lesions on the lips and face. […] 1-2 applications cause the lesions to disappear.
10. A person suffered from Herpes simplex on the lips, mainly when under pressure. […] The blisters disappeared after 24 hours.
11. A person suffered from Herpes simplex on the lips. ZEP3 (500 μg/gr cream) was topically applied several times during the day on the wound. • Results: the person felt relief after several minutes. The itching and redness lessened immediately and the wound disappeared after 36 hours.
12. 7 subjects suffering from Herpes simplex were treated with ZEP3.
13. A person suffered from Herpes simplex lesions on the lips.
14. A person has a festering Herpes simplex lesion. Generally, 10 days are required for recuperation.
15. A person suffered intermittingly from Herpes simplex on the lips, with blisters.

[11] = test system: burns
Description: as §1, §2
1. A person was lightly burned on the back of the hand which touched a very hot object. ZEP4 was immediately applied to the burn site. • Results: the burn mark disappeared within 1 hour. No additional treatments were necessary.
2. A person was severely burned by boiling water on the palm of the hand. […] At the end of 2 weeks there was no sign of the burn, nor thereafter.
3. person two was lightly burned on their finger from boiling oil. […] No further treatments were necessary.
5. A person was burnt on their hand from an oven. […] The burn took on a light brown color.
6. 4 light burn cases, three from touching a hot surface and one from a chemical substance in a laboratory, were treated with ZEP3.
8. person three with irritated skin on the hand due to the rubbing of a watch band. The irritated skin came into contact with a chemical substance (used as a disinfectant). A severe redness developed similar to a burn, and a strong itching feeing. […] D. Oral Cavity

[12] = red rash and itching on breast, 500 μg/gr cream twice in 2 hours
[13] = person, breast cancer radiation burns with blisters and open wounds, 50 μg/gr cream 1-2 times per day for 12 days
[14] = person one, 50 μg/gr cream several times
[15] = person two, 50 μg/gr cream several times
[16] = person, lips, 50 μg/gr cream several times a day at onset of pricking sensation
[17] = person, severe boiling water burn on palm, 50 μg/gr cream immediately and every day for 2 weeks

pGLU-ASN-TRP-THR [ZEP4]
clinical outcome [1, 12]: The rash disappeared after several hours
time to relief from itching [1, 12]: ≤ 10 min
clinical outcome ([1]; strong itching in lower limbs, 500 μg/gr cream as needed): immediate relief
clinical outcome [2]: an immediate relief from the itching sensation was felt
clinical outcome [3]: a decrease in redness and the size of the spots
time until relief is felt ([4]; psoriasis in the anus, (500 μg/gr cream) once a day): 4 days
clinical outcome ([4]; psoriasis in the anus, (500 μg/gr cream) once a day, stopped several days, repeated for 4 days): the psoriasis disappeared
clinical outcome ([4]; psoriasis on hands, 500 μg/gr cream once a day): feels relief; the skin is pleasant feeling and not itchy
improvement as believed by the patient ([4]; psoriasis on hands, 500 μg/gr cream once a day, over 2 weeks): 20%
clinical outcome ([4]; severe psoriasis at various locations, 500 μg/gr cream): the itching ceased and the normal skin appearance returned
clinical outcome ([5]; person four, both hands stung, 1000 μg/gr cream once to one hand, about 10 minutes after sting): the swelling shrunk and the redness decreased to an identical degree on each hand
clinical outcome ([5]; person three, both hands stung, 1000 μg/gr cream once to one hand, about 10 minutes after sting): the swelling shrunk and the redness decreased to an identical degree on each hand
clinical outcome ([5]; person, 50 μg/gr cream, one application 24 hours after the sting): immediate reduction in the redness, swelling and pain
clinical outcome ([6]; person two, wrist rash, allergic response to watch band, 50 μg/gr cream several times a day): a reduction in the redness and in the diameter of the spots
clinical outcome ([6]; person, underarm rash, 50 μg/gr cream twice a day for three days): the redness began to decrease shortly after treatment, and after a few days completely disappeared
clinical outcome [7]: reduced skin edema and an increase in the intervals between attacks. Decrease in the skin rash and the degree of the sore and swelling and a shortening of the time of recovery (healing)
clinical outcome ([8]; person two after mastectomy, severe radiation burns, 500 μg/gr cream several times per day): felt immediate relief
clinical outcome [8, 13]: The therapeutic effect repeated itself after each treatment
time to ease in the itching and burning sensation [8, 13]: ~1 min
clinical outcome ([9]; person one very sensitive to flea bites, 50 μg/gr cream): almost immediate cessation of the itching sensation
clinical outcome ([9]; person two, 50 μg/gr cream several times to bite location): immediate cessation of the itching sensation
clinical outcome as compared to treatment with Zovirax® ([10]; person four, 50 μg/gr cream several times): Rapid drying of the lesion, shrinking of swelling and swift conclusion of the outbreak
clinical outcome [10, 14]: rapid drying of the lesion, as well as shortened scab formation
time to reduction in the stinging/itching feeling [10, 14]: 10 to 20 min
clinical outcome [10, 15]: the development of the lesion was stopped, scab formation began and the stinging/itching feeling disappeared
scab formation as compared to treatment with Zovirax® [10, 15]: shortened
clinical outcome [10, 16]: immediate reduction in the pricking sensation
time until blisters disappeared [10, 16]: 24 h
clinical outcome ([10]; person, lips, 200 μg/gr cream at onset of pricking sensation or lesions): immediate relief; the disease did not develop further
clinical outcome ([11]; person three, irritated skin on hand contacted a disinfectant, burn-like redness and itching, ZEP4 and ZEP3 each 500 μg/gr cream): immediate relief from the redness and itching
clinical outcome ([11]; person two, light burn on finger from boiling oil, 50 μg/gr cream applied immediately): the swelling went down until it completely disappeared
clinical outcome ([11]; person, hand burnt from an oven, 50 μg/gr cream applied immediately): the pain and redness immediately subsided
time until burn mark disappeared ([11]; person, light burn on back of hand from hot object, 50 μg/gr cream applied immediately): ≤ 1 h
clinical outcome [11, 17]: blisters began to appear and then shortly disappeared
time until no sign of the burn [11, 17]: 2 weeks
